Values joined by “and” are separate entries in the source; they are usually repeats but may differ in a detail not shown here. Identical values can stand only once. Like-named read-outs stand apart in the source and are kept apart here.

Data set [1] is described as follows: Plasma cannabinoid concentrations and pharmacokinetics during 14-day industrial hemp feeding. In kind it is in vivo, Holstein cattle. To be noted: for number of plasma samples in which cannabinoid was detected: of 288 samples from HEMP (IH) cattle; for half-life / Cmax / AUC(0-inf) / AUC(0-t) / MRT inf / Tmax: Holstein, bovine; for MRT inf: read-out: MRT0-∞; for detection in plasma: HEMP cattle, doses 0.005 mg/kg CBDVA, 0.2 mg/kg CBGA, 0.1 mg/kg THCA-A. On the procedure:
Cattle in the HEMP group were individually fed 25 g IH mixed in 200 g grain placed in rubber feed pans at 07:00 daily for 14 days. The IH was fed at 25 g per animal per day to target a mean dose of CBDA of 5.5 mg/kg. Daily IH feeding was after the daily blood sample for cattle in the HEMP group.
Cattle were blood sampled at predetermined time points from the jugular or coccygeal veins using a needle and vacutainer. Whole blood was collected into tubes containing sodium heparin, EDTA, sodium citrate, and no additives. Blood samples from the HEMP cattle were obtained prior to initial IH feeding (day −1) and 8 and 12 h post-initial IH feeding; then every 12 h (prior to the next IH feeding); then (starting 12 hours after the last IH feeding) every 24 hours for 5 samples or 108 h after the last IH feeding Cattle in the CNTL group were blood sampled −24 h prior to the initial IH feeding; and on day 7, 14 and 19 post-initial IH feeding.
Plasma cannabinoid concentrations were determined using UPLC-MS methods. All solvents used such as methanol, acetonitrile, isopropanol, formic acid were LC-MS grade. Cannabinoids standards were purchased in individual solutions in methanol (Cerilliant Corporation, Round Rock, TX), including: (±)-cis-11-Nor-9-carboxy-A 9-tetrahydrocannabinol glucuronide (THC-glu), (±)-11-Hydroxy-Δ9-tetrahydrocannabinol (THC-OH), cannabidivarinic acid (CBDVA), cannabidivarin (CBDV), cannabidiol (CBD), cannabidiolic acid (CBDA), Δ9-Tetrahydrocannabinolic acid A (THCA-A), cannabigerolic acid (CBGA), cannabigerol (CBG), Δ9-tetrahydrocannabinol (9-THC), Δ8-tetrahydrocannabinol (8-THC), cannabichromene (CBC), Δ9-tetrahydrocannabivarin (THCV), cannabichromenic Acid (CBCA), cannabinol (CBN), (−)-11-nor-9-Carboxy-Δ9-tetrahydrocannabinol (THC-acid). Cannabinoid analogs used as internal standards were also purchased in solution in methanol at 100 μg/ml (Cerilliant Corporation, Round Rock, TX): (±)-cis-11-Nor-9-carboxy-Δ9-tetrahydrocannabinol glucuronide (THC-glu-d3), Cannabidiol-d3 (CBD-d3), Δ9-Tetrahydrocannabinol-d3 (9-THC-d3), (±)-11-nor-9-Carboxy-D9-tetrahydrocannabinol-d9 (THC-acid-d9), (±)-11-Hydroxy-Δ9-tetrahydrocannabinol-d3 (THC-OH-d3), Cannabichromene-do (CBC-d9). All cannabinoids standards were kept in the freezer at −20° C. On the day of analysis, plasma samples were allowed to thaw. Plasma (samples, quality controls or negative control plasma) were mixed with the internal standard mixture at 200 ng/mL (not added to the negative control sample) and acetonitrile with 0.1% formic acid to precipitate the proteins. The mixture was vortexed for 5 seconds and centrifuge for 5 minutes at 7,000 g. The supernatant was then diluted with ultra-pure […] water before clean-up. The sample was loaded on a solid phase extraction plate using positive pressure nitrogen. Each well was washed twice with 0.25 mL of a mixture of methanol-water (25:75). The compounds were eluted with two-25 μL aliquots of acetonitrile-methanol (90:10) and diluted with 50 μL of water before analysis.
Cannabinoid analysis was performed using an Acquity H UPLC and a TQ-S triple quadrupole mass spectrometer (Waters Corp., Milford, MA). The chromatographic separation was performed with a UPLC column (Eclipse Plus C18, Agilent Technologies, Santa Clara, CA) 100×2.1 mm, 1.8μ, heated at 55° C. The flow rate was set at 0.5 mL/min, the mobile phase consisted of a gradient of acetonitrile (B) and water containing 0.1% formic acid (A) as follow: 0 min: 60% B, 6.50 min: 86% B, 7.50 min-9 min: 100% B, 9.01 m in 12 min: 60% B. The total run time was 12 min. The injection volume was 5 μL. The data acquisition was performed by electrospray ionization in positive and negative mode using multiple reaction monitoring. Linear regression with a weighing factor of 1/X was used and accepted if the coefficient of correlation R^2 was >0.99. Calibration curves were linear from 0.1 to 100 ng/ml for all cannabinoids. […]

The conditions of data set [2]: cited from earlier work.
Where [3] appears, read: plasma, po, 5.5 mg/kg, geometric mean, IH fed 14 days, target dose 5.5 mg/kg CBDA, n = 8.
The mark [4] stands for this setting: plasma, po, 5.5 mg/kg, median, IH fed 14 days, target dose 5.5 mg/kg CBDA, n = 8.
Setting [5] is: geometric mean, IH fed 14 days, target dose 5.5 mg/kg CBDA, n = 8.
[6] abbreviates: median, IH fed 14 days, target dose 5.5 mg/kg CBDA, n = 8.
Where [7] appears, read: plasma, initial hemp feeding period.

Take `CCCCCc1cc2c(c(O)c1C(=O)O)C=CC(C)(CCC=C(C)C)O2` (stereo not shown) [CBCA, cannabichromenic acid]: the “number of plasma samples in which cannabinoid was detected” value in data set [1] came to 93.
`C=C(C)[C@@H]1CCC(C)=C[C@H]1c1c(O)cc(CCCCC)cc1O` [CBD, cannabidiol, reference compound]: in data set [1], the “number of plasma samples in which cannabinoid was detected” value is 159.
On to `C=C(C)[C@@H]1CCC(C)=C[C@H]1c1c(O)cc(CCCCC)c(C(=O)O)c1O` [CBDA, cannabidiolic acid], for which, in data set [2] (earlier published study), the “maximum CBDA concentration (Cmax), previously reported” value is recorded as 72.7 ng/mL and the “terminal half-life, previously published” value is on record as 14 h. In addition, in data set [2] (single oral dosing of IH), the “time of peak concentrations post-exposure” value is 12 to 24 h. In data set [1] (plasma, oral, 5.5 mg/kg, geometric mean, IH fed 14 days, target dose 5.5 mg/kg CBDA, n = 8, read-out: T1/2 (terminal half-life) (converted)), the half-life is 15 h. Besides, in data set [1] (plasma, oral, 5.5 mg/kg, geometric mean, initial hemp feeding period, target dose 5.5 mg/kg CBDA, n = 8), the Cmax (as a rule, the highest concentration seen after dosing) was 22 ng/mL. Also, in data set [1] (setting [3]), the AUC(0-inf) (commonly total exposure, with the tail of the curve extrapolated) stood at 13600 ng·h/mL; the AUC(0-t) – broadly, exposure summed from dosing to a finite time, without extrapolation to infinity – is 13500 ng·h/mL; the MRT inf was determined as 822 h. Also, the half-life in data set [1] (plasma, po, 5.5 mg/kg, geometric mean, IH fed 14 days, target dose 5.5 mg/kg CBDA, n = 8, read-out: T1/2 (terminal half-life) (converted)) is 15.3 h. Moreover, the Tmax (as a rule, the time from dosing to the highest level) in data set [1] (plasma, po, 5.5 mg/kg, geometric mean, after the initial IH feeding, target dose 5.5 mg/kg CBDA, n = 8) is 16.7 h. Also, the peak level in data set [1] (plasma, po, 5.5 mg/kg, geometric mean, initial hemp feeding period, target dose 5.5 mg/kg CBDA, n = 8) (Cmax) was 22.1 ng/mL. In data set [1] (setting [4]), the AUC(0-inf) came to 13600 ng·h/mL, the AUC(0-t) is 13500 ng·h/mL, the Cmax stood at 22.2 ng/mL and the Tmax worked out at 24 h. In data set [1] (setting [4]), the MRT inf turned out to be 772 h. For the same molecule, the half-life in data set [1] (plasma, po, 5.5 mg/kg, median, IH fed 14 days, target dose 5.5 mg/kg CBDA, n = 8, read-out: T1/2 (converted)) was 14.8 h. For the same molecule, the “time to plasma steady state concentrations” value in data set [1] (daily IH administration, visual inspection of the data) is listed as “approximately 7 days”. The “Accumulation (index/ratio)” value in data set [1] (geometric mean / mean, 14-day feeding period, target dose 5.5 mg/kg CBDA, n = 8, 5.5 mg/kg) was 1.5 and 1.52. Besides, in data set [1] (setting [5]), the AUC extrapolated is 0.38% and the λz came out at 0.05 h⁻¹. Also, in data set [1] (setting [6]), the AUC extrapolated was 0.49%, the Accumulation amounted to 1.49 and the λz worked out at 0.05 h⁻¹. In data set [1] (setting [7]), the “geometric mean minimum concentration” value was determined as 12.3 ng/mL and the “time of minimum concentration after the initial IH feeding” value is given as 9.3 h.
Regarding `C=C(C)[C@@H]1CCC(C)=C[C@H]1c1c(O)cc(CCC)c(C(=O)O)c1O` [CBDVA, cannabidivarinic acid], the detection in plasma entry in data set [1] is recorded as “detected in the plasma of all cattle”.
On to `CCCCCc1cc(O)c(C/C=C(\C)CCC=C(C)C)c(O)c1C(=O)O` [CBGA, cannabigerolic acid], for which the detection in plasma result in data set [1] was “detected in the plasma of all cattle”.
For the molecule `CCCCCc1cc2c(c(O)c1C(=O)O)[C@@H]1C=C(C)CC[C@H]1C(C)(C)O2` [THCA-A, tetrahydrocannabinolic acid A], the detection in plasma entry in data set [1] is given as “detected in the plasma of all cattle”.

Source of the values: patent US20240423245A1, “CANNABINOIDS FOR IMPROVEMENT OF P[…] LIVESTOCK” (Kansas State University Research Foundation, priority 2021, published 2024).
